The values that follow come from patent publication US20250032483A1, “COMPOSITIONS AND METHODS FOR TREATING PAIN” (ICAHN SCHOOL OF MEDICINE AT MOUNT SINAI, priority 2021, published 2025).

The subject of data set [1] is CFA model of peripheral inflammation in female mice. Description: Hargreaves' thermal beam assay, CFA model. It is filed as in vivo. To be noted: 5 mg/kg i.p. QD, vs saline. On the procedure:
(§1) The inventors used the CFA model of peripheral inflammation in female mice to determine the impact of ILF3 inhibition in sensory hypersensitivity behaviors associated with inflammatory pain states. […] To identify any immediate analgesic effects of YM155 under local, peripheral inflammation conditions, the inventors first tested CFA-injected mice in the Von Frey and Hargreave's assays at 30 minutes post-drug administration.
(§2) The inventors also tested whether YM155 had sustained effects on sensory hypersensitivity after the expected window of activity (approximately 24 hours post-injection, based on a ˜one hour half-life in intravenously-treated mice).
(§3) For studies using models of peripheral inflammation, two-to three-month old mice received 30 μL left hindpaw injections of Complete Freund's Adjuvant (CFA: diluted 1:1 in saline) or IFNB injections (300 U per 25 μL), as described previously. For studies using the post-operative incision model, two-to three-month-old mice received an incision from the posterior plantar surface of the hindpaw to the middle of the paw pads, in which dermis and superficial muscle was cut and dermis was sutured afterwards. […]
The CFA model induces thermal hypersensitivity for 10-14 days on average. […] Three measurements were recorded and averaged for each hindpaw, with each measurement taking place at least two minutes apart.

Data set [2] deals with paw incision model mice. Put plainly: Von Frey assay, paw incision model (pre-treatment). It is filed as in vivo. To be noted: pre-treatment 5 mg/kg i.p. for seven days; no drug after incision; vs saline. On the procedure:
(§4) The inventors also tested whether YM155 could be used to prophylactically reduce pain experienced after acute post-operative injuries. For this, the inventors used the paw incision model and pre-treated animals at a dose of 5 mg/kg i.p, for seven days. Animals were not treated with drug after the incision.
as §3
(§5) Hamsters/mice were placed on a raised grid platform in plastic containers and were allowed to habituate to their environment for a minimum of 10 minutes. Afterwards, filaments of ascending forces were applied to the left hindpaw and responses were recorded. […] Progression to the next filament was determined by recording of positive or negative responses for three out of five applications with each filament. […]

The conditions of data set [3]: intravenously-treated mice; cited from earlier work.
In data set [4] the test system is interferon-induced mechanical hypersensitivity in mice. Put plainly: Von Frey assay, hindpaw IFNβ injection model. It is filed as in vivo.
From the text: While the CFA model promotes both peripheral interferon and cytokine signaling. the inventors wanted to investigate the role of ILF3 inhibition in a model of isolated interferon signaling to better understand its role in virus-induced hypersensitivity. For this, the inventors implemented hindpaw interferon β (IFNβ) injections. The inventors compared mechanical thresholds between a group of female mice that received no IFNβ injection and daily saline (Naïve-Saline), a group that received a single IFNβ injection and daily saline (IFNβ-Saline). and a group that received a single IFNβ injection and immediate daily administration of YM155 (5 mg/kg i.p. BID: IFNβ-YM155). […] The inventors therefore performed an experiment in which a Naïve-Saline and IFNβ-Saline group began receiving YM155 (2.5 mg/kg i.p. BID) after mechanical thresholds were taken one day after intraplantar injections. […] ILF3 inhibition is effective at suppressing interferon-induced hypersensitivity in both mouse sexes. […]
as §5

For data set [5], the system named is paw incision model mice. Description: Locomotor activity after paw incision. The class given is in vivo. The settings on record: Day 1 post-paw incision; YM155 vs saline. How it is done:
as §4

The subject of data set [6] is CFA model of peripheral inflammation in female mice. Description: Von Frey assay, CFA model. The class given is in vivo. To be noted: 5 mg/kg i.p. QD, vs saline. On the procedure: as §1, §2
For studies using models of peripheral inflammation, two-to three-month old mice received 30 μL left hindpaw injections of Complete Freund's Adjuvant (CFA: diluted 1:1 in saline) or IFNB injections (300 U per 25 μL), as described previously. […]
as §5

A further data set concerns mice. Description: Toxicity observed on dosing in mice. The class given is in vivo.
Data set [7] in a line: Body weight during YM155 administration, CFA model. The class given is in vivo, mice. The settings on record: 5 mg/kg i.p. QD; first 9 days of treatment. How it is done:
as §2
For studies using models of peripheral inflammation, two-to three-month old mice received 30 μL left hindpaw injections of Complete Freund's Adjuvant (CFA: diluted 1:1 in saline) or IFNB injections (300 U per 25 μL), as described previously. For studies using the post-operative incision model, two-to three-month-old mice received an incision from the posterior plantar surface of the hindpaw to the middle of the paw pads, in which dermis and superficial muscle was cut and dermis was sutured afterwards. CFA and paw incision groups of mice received daily intraperitoneal (i.p.) injections of saline (vehicle) or YM155 (Tocris Biosciences), an Interleukin Enhancer Binding Factor 3 (ILF3) inhibitor (2.5 or 5 mg/kg diluted in saline).

Where [8] appears, read: CFA-injected female mice, 30-60 minutes after administration.

“Also recorded” adds a separate entry of the source.

With `COCCn1c2c([n+](Cc3cnccn3)c1C)C(=O)c1ccccc1C2=O` [YM155], the “thermal thresholds / Hargreaves' withdrawal latency, sustained” value in data set [1] (CFA mice, ~24 hours post-injection, six consecutive days of administration (PD-D6)) is “increased thermal thresholds in a sustained fashion; also recorded: significantly higher withdrawal latency”. For the same compound, in data set [1] (setting [8]), the “thermal thresholds / Hargreaves' response times” value is reported as “increased thermal thresholds; also recorded: increased Hargreaves' response times”. Also, in the data set on paw incision model mice [2], the “mechanical hypersensitivity after paw incision” value is recorded as “significantly lower mechanical hypersensitivity after paw incision; also recorded: significant reduction in mechanical hypersensitivity”. Also, the half-life result in data set [3] was “one”. Also, the “interferon-induced mechanical hypersensitivity (mechanical thresholds)” value in data set [4] (female mice, hindpaw IFNβ 300U/25 μL, concurrent YM155 5 mg/kg i.p., days 1 and 3 after IFNβ, 5 mg/kg) is given as “interrupted the onset of interferon-induced mechanical hypersensitivity; also recorded: no change in thresholds”. The “mechanical thresholds, IFNβ group” value in data set [4] (male mice, 2.5 mg/kg i.p. BID started one day after intraplantar injection, by day three) was “substantial increase in mechanical thresholds”. Moreover, in the data set on paw incision model mice [5], the “locomotion / locomotor activity” value is “No differences in locomotion were observed; also recorded: no changes in locomotor activity”. Besides, the “mechanical thresholds (von Frey), sustained” value in data set [6] (CFA mice, ~24 hours after administration, PD-D5, PD-D7, PD-D9) is “increased mechanical thresholds in a sustained fashion; also recorded: sustained recovery of mechanical thresholds”. Further, the “mechanical (von Frey) thresholds” value in data set [6] (setting [8]) is given as “increased mechanical thresholds; also recorded: increased von Frey thresholds”. In addition, the toxicity result in the data set on mice (female mice, 20 mg/kg) is “lethal toxicity”; in the data set on mice (male mice, 2.5 mg/kg i.p. BID), “did not observe toxicity”; in the data set on mice (male mice, 5 mg/kg dose) it was “increased sensitivity to the drug and subsequent toxicity”. Moreover, in data set [7], the post-CFA weight entry is given as “No changes in post-CFA weight were observed”.
